The text below walks through data of patent publication US12357695B2, “Peptides and nanoparticles for intracellular delivery of molecules” (AADIGEN, LLC, priority 2019, dated 2025).

The subject of assay [1] is 293T cells. Briefly: Cellular delivery of pGL4 plasmid DNA expressing Luciferase, luciferase expression at 72 hrs. To be noted: for reduction of efficiency / luciferase expression in the presence of serum: complexes incubated 3 hrs in 25% serum prior transfection; for reduction of efficiency / luciferase expression in the presence of serum / reduction of efficiency / luciferase expression in heparan sulfate: pGL4 plasmid; for reduction of efficiency / luciferase expression in heparan sulfate: complexes incubated 3 hrs with heparan sulfate prior transfection; for reduction of ADGN-100 efficiency by modification / luciferase expression: 0.15 μg pGL4 plasmid; for reduction of ADGN-100 efficiency by modification: absence of serum or heparan sulfate. It counts as cell-based. As for the experimental part:
FIGS. 2A-2C show luciferase expression in 293T cells treated with ADGN-peptide/pGL4 plasmid DNA complexes. 293T cells cultured in 48 well plates were transfected with ADGN-peptide nanoparticles. ADGN-100, ADGN-106, ADGN-100RI, ADGN-106RI, ADGN-100 Stearyl, ADGN-Hydro1, ADGN-Hydro2, ADGN-Hydro3, ADGN-Hydro4, ADGN-Hydro5, and ADGN-Hydro6 containing 0.17 μg pGL4 plasmid DNA were formed in sterile water, diluted in sterile water containing 5% Sucrose. ADGN-peptide nanoparticles were evaluated prior (FIG. 2A) and after filtration with 0.45 μm PES filters (FIG. 2B). FIG. 2C impact of peGylated ADGN-100 on the transfection efficiency. pGL4 luc plasmid (0.15 μg) were associated to ADGN-100 solution containing 5 to 50% of ADGN-100-PEG or to ADGN-100PEG. ADGN/pGL4 plasmid DNA complexes were incubated for 3 hrs in the presence of either 25% serum or heparan sulfate prior transfection. Luciferase expression was monitored 72 hours post transfection and results were reported as RLU (luminescence):mg of protein.
Complex formation with plasmid DNA. The following protocols were used for the transfection of 2-5 106 Cells or Cells at confluency of about 70-80% cultured in 24 well plates. ADGN peptide/plasmid DNA pGL4 particles were prepared at a 20:1 molar ratio of ADGN-Peptide/pGL4. using (0.2 μg). PGL4 plasmid (0.15 μg) was diluted in 20 μl of sterile water (GIBCO) at room temperature. 10 μl Final Peptide Solution was added to obtain a total volume of 20 μl. The volume was adjusted to 50 μl with sterile water and was mixed gently with vortex 1 min low speed and incubated 30 min at room temperature. Then the volume was made up to 100 μl by adding sterile water containing 5% sucrose, and the solution was mixed gently with vortex 1 min low speed and incubate 5 min at 37° C. and then was proceeded to cell transfection.
Transfection protocol. Protocol is reported for 24 well plate format. Cells were cultured in Dulbecco's Modified Eagle's Medium (DMEM), supplemented with 2 mM glutamine, 1% antibiotics (streptomycin 10,000 μg/mL, penicillin, 10,000 IU/mL) and 10% (w/v) foetal calf serum (FCS), at 37° C. in a humidified atmosphere containing 5% CO2. 24 well plates seeded with 150,000 cells the day prior to transfection were grown to 50-60% confluence and set up to be at about 70% confluences at the time of transfection. Before transfection, cells were washed twice with DMEM. Cells were then overlaid with 0.1 ml of ADGN-peptide/cargo complex solution containing 0.25 μg mRNA, 0.15 μg plasmid DNA or 10-25 nM siRNA, mixed gently, and incubated for 10 min at 37° C. 0.2 mL of fresh DMEM, were added and cells were incubated for 20 min at 37° C. 1 mL of complete DMEM containing 15% FCS were then added in order to reach a final FCS concentration of 10%, without removing the overlay of ADGN-peptide/cargo complexes. Cells were returned to the incubator (37° C., 5% CO2) and 72 hrs post transfection.
ADGN-peptides were evaluated for cellular delivery of pGL4 plasmid DNA expressing Luciferase in 293T cells. Luc pGL4 plasmid (0.15 μg) in sterile water (GIBCO) were mixed with ADGN-100, ADGN-100RI, ADGN-106, ADGN-106RI, ADGN-100 Stearyl, ADGN-100Hydro1, ADGN-100Hydro2, ADGN-100Hydro4, ADGN-100Hydro3, ADGN-100Hydro5 and ADGN-100Hydro6. ADGN-peptide/mRNA complexes were filtered with 0.45 μm PES filter. In order to evaluate the stability of the ADGN/pGL4 plasmid complexes in high serum and cell culture conditions, the complexes were incubated for 3 hrs in the presence of either 25% serum or heparan sulfate prior transfection, then 293T cells were transfected and Luciferase expression was monitored at 72 hrs.

Assay [2] has as its system mice. Description: In vivo delivery of pGL4 plasmid DNA, intramuscular administration, bioluminescence imaging. To be noted: IM, 2.5 μg pGL4 plasmid. As for the experimental part:
FIGS. 7A-7B show the potency of ADGN-peptide variants for in vivo delivery of Luciferase expressing plasmid pGL4 via intramuscular administration in mice. ADGN-peptide/pGL4 luc particles containing 2.5 μg plasmid DNA were formed in sterile water, and then diluted in 5% sucrose. Mice received IV injection of 25 μl ADGN-peptide/pGL4 complexes. Luciferase expression was monitored by bioluminescence imaging after 12 h, 24 h and 48h (A). FIG. 7B show bioluminescence imaging at 24 hr in control and treated groups.
Stable ADGN-peptides/pGL4.11 DNA were evaluated for in vivo delivery of Luciferase mRNA via intravenous and intramuscular administrations. Animals were treated with single dose of pGL4.11 plasmid DNA of 5 μg. via IV and 2.5 μg via intramuscular administration.
For IM administration, mice received 25 μl (2.5 μg of pGL4 plasmid) IV injection of either ADGN-100/PGL4, ADGN-106/PGL4, ADGN-100RI/PGL4, ADGN-100hydro1/PGL4, ADGN-100hydro6/PGL4, ADGN-100 stearyl/PGL4 or ADGN-100/PGL4 complexes containing 10% or 20% of ADGN-100PEG (2 animals per group). As control, mice from group 3 (2 animals per group) received IV injection of 25 μl of naked PGL4 plasmid (2.5 μg).
Luciferase expression was monitored by bioluminescence. Bioluminescence imaging was performed after 12, 24, 48 and 72 hrs. Mice received an i.p. injection of 150 μg/g luciferin for noninvasive bioluminescence imaging (IVIS Kinetic; PerkinElmer, Waltham, MA, USA).

Square brackets hold non-standard residues; d marks the D form. Ends that are not written are not given here. Stearyl = stearyl group covalently linked to the N-terminus; Aun = NCCCCCCCCCCC(=O)O; βAla = NCCC(=O)O

For “Ac-GYVS-(G)4-KWRSALWRWRLWRVRSWSR-NH2 (Ac-GYVSGGGGKWRSALWRWRLWRVRSWSR-NH2) [ADGN-100 hydro-2]”, in assay [1], the “reduction of efficiency / luciferase expression in the presence of serum” value is “do not significantly improved transfection” and the “reduction of efficiency / luciferase expression in heparan sulfate” value is listed as “do not significantly improved transfection”. Also, the luciferase expression result in assay [2] is “no significant expression”.
For the substance “Ac-GYVS-Aun-KWRSALWRWRLWRVRSWSR-NH2 (Ac-GYVS[Aun]KWRSALWRWRLWRVRSWSR-NH2; SMILES CC(=O)NCC(=O)N[C@@H](Cc1ccc(O)cc1)C(=O)N[C@H](C(=O)N[C@@H](CO)C(=O)NCCCCCCCCCCC(=O)N[C@@H](CCCCN)C(=O)N[C@@H](Cc1c[nH]c2ccccc12)C(=O)N[C@@H](CCCNC(=N)N)C(=O)N[C@@H](CO)C(=O)N[C@@H](C)C(=O)N[C@@H](CC(C)C)C(=O)N[C@@H](Cc1c[nH]c2ccccc12)C(=O)N[C@@H](CCCNC(=N)N)C(=O)N[C@@H](Cc1c[nH]c2ccccc12)C(=O)N[C@@H](CCCNC(=N)N)C(=O)N[C@@H](CC(C)C)C(=O)N[C@@H](Cc1c[nH]c2ccccc12)C(=O)N[C@@H](CCCNC(=N)N)C(=O)N[C@H](C(=O)N[C@@H](CCCNC(=N)N)C(=O)N[C@@H](CO)C(=O)N[C@@H](Cc1c[nH]c2ccccc12)C(=O)N[C@@H](CO)C(=O)N[C@@H](CCCNC(=N)N)C(N)=O)C(C)C)C(C)C) [ADGN-100 hydro-6]”, the “reduction of ADGN-100 efficiency by modification” value (shortened to “reduction of ADGN-100 efficiency”) in assay [1] is on record as “do not affected”. The luciferase expression entry in assay [2] is listed as “mediated Luciferase expression following IM administration”.
Turning to “Stearyl-βA-KWRSALWRWRLWRVRSWSR-NH2 (Stearyl-[βAla]KWRSALWRWRLWRVRSWSR-NH2; not fully specified; printed as Stearyl-βA-KWRSALWRWRLWRVRSWSR-NH2) [ADGN-100 Stearyl]”, the “reduction of ADGN-100 efficiency” value in assay [1] was “do not affected”.
For the substance “akwllrwlsrwlrwlarwlr ([dA][dK][dW][dL][dL][dR][dW][dL][dS][dR][dW][dL][dR][dW][dL][dA][dR][dW][dL][dR]; also: retro-inverso) [ADGN-106-RI]”, the luciferase expression entry in assay [1] is “poor luciferase expression”.
Take “rswsrvrwlrwrwgasrwk ([dR][dS][dW][dS][dR][dV][dR][dW][dL][dR][dW][dR][dW]G[dA][dS][dR][dW][dK]; also: retro-inverso) [ADGN-100-RI]”: in assay [1], the “reduction of ADGN-100 efficiency” value is “do not affected”, the “reduction of efficiency / luciferase expression in the presence of serum” value was found to be 25% and the “reduction of efficiency / luciferase expression in heparan sulfate” value is given as “less than 10%”. Further, in assay [2], the “increase of luciferase expression in the muscle / efficiency relative to ADGN-100” value came out at 6 fold and the luciferase expression entry was “mediated Luciferase expression following IM administration”.
“βAKWRSAGWRWRLW RVRSWSR (AKWRSAGWRWRLWRVRSWSR; N-terminal beta-alanine; VARIANT 1 beta-A) [ADGN-100]”: in assay [1], the luciferase expression result is on record as “high level of luciferase expression”, the “reduction of efficiency / luciferase expression in the presence of serum” value worked out at 90% and the “reduction of efficiency / luciferase expression in heparan sulfate” value came to 50%. For the same substance, the luciferase expression result in assay [2] is listed as “mediated Luciferase expression following IM administration”.
“βALWRALWRLWRSLWRLLWKA ([βAla]LWRALWRLWRSLWRLLWKA) [ADGN-106]”: the luciferase expression entry is reported as “poor luciferase expression” in assay [1] and “no significant expression” in assay [2].
